{"source": "patent US20220008390A1", "about": "“COMPOSITIONS AND METHODS FOR TREATING PAIN AND/OR INFLAMMATION” (Neumentum, Inc., priority 2020, published 2022)", "key": {"rat formalin (1%) model": {"test_system": "rat formalin (1%) model", "experiment": "rat formalin (1%) test", "type": "in vivo", "details": "300 mg/kg, oral, 1 hr pretreatment; 1% formalin intraplantar; FIG. 1", "experimental": "5-Methyl-1H-pyrazole-3-carboxylic acid (4-hydroxy-phenyl)-amide (Compound 1) was tested in the rat formalin (1%) model. The rat formalin test is a preclinical model of human painful conditions.\nThe formalin test in rat (or mice) is a valid and reliable model of nociception (sensation of pain) and is sensitive for various classes of analgesic drugs. Formalin is a solution of formaldehyde in water. The subcutaneous injection of dilute formalin induces pain in humans and nociceptive (presumptive of pain) behaviors in animals. Since it is painful when it is injected in humans, it is used as an animal model that is considered translational to human pain. […]\nIn the formalin model, pain response scoring is determined by recording the pain-like behaviors per unit of time including licking, flinching, or raising or shaking of the injected paw. […]\nFor all Groups, animals were acclimated to the observation chamber for about 15 minutes immediately prior to formalin injection. All animals received an intraplantar subcutaneous injection of 50 μL of 1% formalin into the left hind paw and were then be placed in the observation chamber immediately and formalin-evoked spontaneous nociceptive behaviors in the rats was continuously recorded for 0-60 min using a commercial camcorder. […]"}, "[1]": {"test_system": "carrageenan-induced paw-edema", "experiment": "rat carrageenan-induced paw-edema model", "type": "in vivo", "experimental": "5-Methyl-1H-pyrazole-3-carboxylic acid (4-hydroxy-phenyl)-amide (Compound 1) was tested in the rat carrageenan paw-edema model. The rat carrageenan model is a preclinical model of inflammation and anti-inflammatory efficacy. Generally, animals are injected with carrageenan in one hind footpad, usually, half an hour or an hour after they are treated with the test compound while the other footpad is injected with saline as a control. The measurement of paw volume/thickness is then performed at specified time points. The objective of this study was to evaluate the effect of 5-Methyl-1H-pyrazole-3-carboxylic acid (4-hydroxy-phenyl)-amide (Compound 1) on paw edema in rat induced by intra-plantar injection of i-Carrageenan into the left hind paw. [table] On Day 1, carrageenan (1%; 100 uL) was injected subcutaneously into the plantar aspect of the left hindpaw of rats from all groups. Carrageenan injection was performed in conscious rats by restraining with hand and injection was done in the middle of the plantar surface area. The carrageenan solution was vortexed/stirred before each injection. • Route of Administration Oral gavage (PO) • Dosing Regimen: Single dose on Day 1, 1 h before Carrageenan injection. • Method: The day of dosing was designated as Day 1. The animals were not sedated. The volume for each dose was administered over one injection based on the body weight. Paw volume (left hind paw) was measured before carrageenan injection (baseline) and then at 1, 3, 6 and 8 hours (+/−2 minutes) after carrageenan injection (on Day 1). Measurements will be done using a digital plethysmometer as below: In brief, the Plethysmometer is a volume meter, designed for accurate measurements of inflammation-induced swelling. It consists of a water filled cell into which the paw along with the ankle joint is dipped. A transducer records the differences in water level caused by volume displacement and provides LCD readout of the exact volume gain due to swelling. Limb volumes were recorded onto a data sheet as they were measured. One trial per animal were recorded for each time point. […]"}, "[2]": {"test_system": "moderate to severe pain after third molar extractions", "experiment": "single-dose clinical study, pain after third molar extractions (pain intensity difference)", "type": "in vivo, human", "details": "1000 mg single dose, up to 24 hours post-dose; FIG. 3", "experimental": "A single-center, randomized, double-blind, placebo- and active-controlled, parallel group study was performed to evaluate the efficacy, safety and pharmacokinetic profile of a single dose of 5-Methyl-1H-pyrazole-3-carboxylic acid (4-hydroxy-phenyl)-amide (Compound 1), over a 24-hour on-site period in moderate to severe pain after third molar extractions in up to 280 male subjects was performed. Healthy male subjects, ages 18 to 45 years, were screened by medical history, vital signs, electrocardiogram (ECG), and clinical laboratory tests. Eligible subjects returned to the clinic on the day of surgery and completed baseline vital signs and clinical laboratory tests. The subjects were randomized such that one group received placebo (Group 1), one group received 1000 mg of Compound 1 (Group 2), and one group received 1000 mg acetaminophen (Group 3). All Groups received the treatment dose within up to 4.5 hours after oral surgery (third molar extraction). Pain intensity/pain relief assessments were collected at 0.25, 0.5, 0.75, 1, 1.5, 2, hourly up to 12, 16, and 24 hours post-dose and at time of first rescue medication (oral ibuprofen). […] This unexpected result makes the compounds of the present invention suitable for chronic pain and/or inflammatory indications as disclosed herein."}, "[3]": {"experiment": "pharmacokinetic profile in third molar extraction study", "type": "in vivo", "details": "human; plasma, 1000 mg single dose, male subjects", "experimental": "A single-center, randomized, double-blind, placebo- and active-controlled, parallel group study was performed to evaluate the efficacy, safety and pharmacokinetic profile of a single dose of 5-Methyl-1H-pyrazole-3-carboxylic acid (4-hydroxy-phenyl)-amide (Compound 1), over a 24-hour on-site period in moderate to severe pain after third molar extractions in up to 280 male subjects was performed.\nThe subjects were randomized such that one group received placebo (Group 1), one group received 1000 mg of Compound 1 (Group 2), and one group received 1000 mg acetaminophen (Group 3). All Groups received the treatment dose within up to 4.5 hours after oral surgery (third molar extraction).\nPain intensity/pain relief assessments were collected at 0.25, 0.5, 0.75, 1, 1.5, 2, hourly up to 12, 16, and 24 hours post-dose and at time of first rescue medication (oral ibuprofen). […] This unexpected result makes the compounds of the present invention suitable for chronic pain and/or inflammatory indications as disclosed herein."}, "[4]": {"test_system": "mechanical allodynia after severe spinal cord contusion injury", "experiment": "mechanical allodynia after severe spinal cord contusion injury (von Frey, Up-Down)", "type": "in vivo, rat", "details": "10 mg/kg/day by gavage for 7 days; day 28 post surgery", "experimental": "5-Methyl-1H-pyrazole-3-carboxylic acid (4-hydroxy-phenyl)-amide (Compound 1) treatment is tested in the suppression of the development of mechanical allodynia after severe spinal cord contusion injury in the rat. Thirteen week-old female Lewis rats (Charles River, Sulzfeld Germany) are housed under a 12:12 h dark/light regime and allowed free access to water and food. After one week of habituation the animals undergo general anesthesia with a mixture of isoflurane and air (induction: 5% isoflurane, maintenance: 2.2% isofluorane). […] The following groups were used: • Group I: SCI model+vehicle (1.5% Carboxymethylcellulose (CMC) in sterile water) by gavage for seven days • Group 2: SCI model+Compound 1 (10 mg/kg/day) in vehicle by gavage for 7 days The mechanical sensitivity response is measured as the direct pressure stimulus required for eliciting foot withdrawal in nonrestrained conditions. […] The 50% threshold force needed for paw withdrawal is calculated for both hind paws of each rat and the mean value of both hind paws is used to represent the mechanical sensitivity of this animal. The mechanical sensitivity (indicated by the 50% threshold force for paw withdrawals) is determined by the Up-Down method using von Frey filaments. […]"}, "neuropathic pain": {"test_system": "neuropathic pain", "experiment": "12 week study in subjects with neuropathic pain", "type": "in vivo, human", "details": "arms including 1000 and 2000 mg/day", "source_text": "Subjects are diagnosed with neuropathic pain (chronic and ongoing for more than 3 months in contrast to an acute injury of nerve or nervous system).\nIn case of low back pain (mixed pain) a possible, probable or definite neuropathic pain component can be diagnosed via screening tools at screening/baseline visits, e.g. PAIN DETECT, LANSS, DN-4).\nA 12 week study is designed to compare 5-Methyl-1H-pyrazole-3-carboxylic acid (4-hydroxy-phenyl)-amide (Compound 1) to placebo and to a standard (pregabalin).\nThere are 2-3 dosing arms for Compound 1 (including 1000 and 2000 mg/day)."}}, "data": [{"molecule": "Cc1cc(C(=O)Nc2ccc(O)cc2)n[nH]1", "note": "[Compound 1, 5-Methyl-1H-pyrazole-3-carboxylic acid (4-hydroxy-phenyl)-amide]", "values": [{"measurement": "nociceptive behaviors in Phase II of the rat formalin test", "setting": "rat formalin (1%) model", "value": "inhibited nociceptive behaviors"}, {"measurement": "carrageenan-induced paw-edema (paw volume)", "setting": "[1]; 300 mg/kg and 600 mg/kg, orally, single dose 1 h before carrageenan, FIG. 2A", "value": "dose-relatedly inhibited carrageenan-induced paw-edema"}, {"measurement": "AUC of paw volume data, 300 mg/kg dose compared to 600 mg/kg dose", "setting": "[1]; FIG. 2B", "value": "statistically significant difference"}, {"measurement": "duration of the effect of a single oral dose", "setting": "[1]; single oral dose, paw-edema inhibition", "value": "> 8", "unit": "h"}, {"measurement": "Pain intensity difference from baseline (PID) score compared with 1000 mg acetaminophen", "setting": "[2]", "value": "significantly greater and longer lasting PID score"}, {"measurement": "half-life", "setting": "[3]", "value": "~10", "unit": "h"}, {"measurement": "mechanical hypersensitivity (50% threshold force for paw withdrawal)", "setting": "[4]", "value": "mechanical hypersensitivity is reduced"}, {"measurement": "pain intensity and signs and symptoms of neuropathy/hyperexcitability vs. placebo and standard (pregabalin)", "setting": "neuropathic pain", "value": "shows improvement vs. placebo and improvement or comparable effects vs. standard"}]}]}
